Laboratory results taken from patent publication US11629171B2, “Beta-hairpin peptidomimetics” (POLYPHOR AG, priority 2017, dated 2023).
Values after ≈ are worked out from the molar mass of the structure shown. Where a SMILES comes first, the peptide text is derived from it. Bridges are numbered along the chain shown (N, C = ends). Roman numbers before positions name the chains, in order. [ ]: non-standard residue; d: D form. The star is where a group is joined. Thr(ol) = C[C@@H](O)[C@H](N)CO; Tle = CC(C)(C)[C@H](N)C(=O)O; NMeV = CN[C@H](C(=O)O)C(C)C; Hiv = CC(C)[C@H](O)C(=O)O; dDab = NCC[C@@H](N)C(=O)O; hSer = N[C@@H](CCO)C(=O)O; NHCH(CH2OH)2 = OCC(CO)N*; Orn = NCCC[C@H](N)C(=O)O; Dab = NCC[C@H](N)C(=O)O; Dap = NC[C@H](N)C(=O)O

Assays:
Type in all cases: cell-based
[1] = system: Escherichia coli 926415; conditions: 926415
Method: (§1) The in vitro antimicrobial activities of the peptides were determined in 96-well plates (Greiner, polystyrene) by the standard CLSI broth microdilution method (Clinical and Laboratory Standards Institute 2014. Performance standards for antimicrobial susceptibility testing, 24th informational supplement. Approved standard CLSI M100-S24; Clinical and Laboratory Standards Institute, Wayne, Pa.). The following microorganisms were used to determine antibiotic activity of the peptides: Escherichia coli ATCC 25922, Klebsiella pneumoniae SSI #3010^a), Acinetobacter baumannii DSM 30008, Pseudomonas aeruginosa ATCC 27853 and the clinical isolates Escherichia coli 926415^b), Klebsiella pneumoniae 968733^b), Acinetobacter baumannii 872842^b), Enterobacter cloacae 848840^b) and Escherichia coli MCR-1 Af45^c). Before preparation of inocula, Escherichia coli MCR-1 Af45 was subcultured on Mueller-Hinton II (MH-cation adjusted) agar containing 2 μg/mL colistin. ^a) Obtained from Statens Serum Institut (SSI), Copenhagen, Denmark^b) Obtained from International Health Management Associates, Inc. (IHMA Europe Sàrl), Epalinges, Switzerland^c) Obtained from Prof. Patrice Nordmann, University of Fribourg, Fribourg, Switzerland
(§2) Inocula of the microorganisms were diluted into Mueller-Hinton II (MH-cation adjusted) broth and compared with a 0.5 McFarland standard to give appr. 10^6 colony forming units (CFU)/mL. Aliquots (90 μL) of inoculum were added to 10 μL of MH-II broth+P-80 (Polysorbate 80, 0.002% final concentration, v/v) containing the peptide in serial two-fold dilutions. Antimicrobial activities of the peptides were expressed as the minimal inhibitory concentration (MIC) in μg/mL at which no visible growth was observed after 18-20 hours of incubation at 35° C.

[2] = system: Pseudomonas aeruginosa ATCC 27853; conditions: ATCC 27853
Method: as §1, §2

[3] = system: Klebsiella pneumoniae SSI #3010; conditions: SSI #3010
Method: as §1, §2

[4] = system: Klebsiella pneumoniae 968733; conditions: 968733
Method: as §1, §2

[5] = system: Acinetobacter baumannii 872842; conditions: 872842
Method: as §1, §2

[6] = system: Escherichia coli ATCC 25922; conditions: ATCC 25922
Method: as §1, §2

[7] = system: Acinetobacter baumannii DSM 30008; conditions: DSM 30008
Method: as §1, §2

[8] = system: human red blood cells (hRBC); assay: Hemolysis; conditions: red cells of human, 1 h, 200
Method: The peptides were tested for their hemolytic activity against human red blood cells (hRBC). Fresh hRBC were washed four times with phosphate buffered saline (PBS) and centrifuged for 10 min at 3000×g. Compounds (200 μg/mL) were incubated with 20% hRBC (v/v) for 1 h at 37° C. and shaking at 300 rpm. A value of 0% and 100% cell lysis, respectively, was determined by incubation of hRBC in the presence of PBS containing 10% water and 2% Triton X-100 in H2O, respectively. The samples were centrifuged, the supernatants were ˜7.5-fold diluted in PBS buffer and the optical densities (OD) were measured at 540 nm and blank corrected. The 100% lysis value (OD540Triton X-100) gave an OD540 of approximately 0.5-1.0.
Percent hemolysis was calculated as follows: (OD540peptide/OD540Triton X-100)×100%.

SMILES	MIC [1]	MIC [2]	MIC [3]	MIC [4]	MIC [5]	MIC [6]	MIC [7]	Hemolysis at 200 μg/mL [8]
CC(C)C[C@@H]1NC(=O)[C@@H](CC(C)C)NC(=O)[C@H](CCN)NC(=O)[C@@H](NC(=O)[C@H](CN)NC(=O)[C@@H](NC(=O)[C@H](CCN)NC(=O)CC[C@@H]2NC(=O)[C@H](CCCN)NC(=O)[C@@H](NC(=O)[C@H](Cc3ccc(O)cc3)NC(=O)[C@@H](NC(=O)[C@@H](O)C(C)C)[C@@H](C)O)CSSC[C@@H](C(=O)N[C@H](C(=O)N[C@@H](C)C(=O)N[C@H](CO)[C@@H](C)O)C(C)(C)C)NC(=O)[C@H](Cc3c[nH]c4ccccc34)NC(=O)[C@H]([C@@H](C)O)NC2=O)[C@@H](C)O)CCNC(=O)[C@H]([C@@H](C)O)NC(=O)[C@H](CCN)NC(=O)[C@H](CCN)NC1=O [Ex. 209] (I: H-[Hiv]TYC[Orn]ETWC[Tle]A[Thr(ol)] / II: [Dab]T[Dap][Dab][Dab][dL]L[Dab][Dab]T; disulfide I:4-I:9; amide I:6-II:N; lactam II:4-II:C)	1 µg/mL (≈ 0.419 µM)	0.5 µg/mL (≈ 0.21 µM)	0.25 µg/mL (≈ 0.105 µM)	4 µg/mL (≈ 1.68 µM)	2 µg/mL (≈ 0.838 µM)	0.125 µg/mL (≈ 0.0524 µM)	0.25 µg/mL (≈ 0.105 µM)	<1%
CC(=O)N[C@@H](CCN)C(=O)N[C@H](C(=O)N[C@@H](CN)C(=O)N[C@@H](Cc1ccc(O)cc1)C(=O)N[C@H]1CSSC[C@@H](C(=O)N[C@H](C(N)=O)C(C)(C)C)NC(=O)[C@H](Cc2c[nH]c3ccccc23)NC(=O)[C@H](CCN)NC(=O)[C@@H](CCN)NC(=O)[C@H](CCC(=O)N[C@@H](CCN)C(=O)N[C@H](C(=O)N[C@@H](CN)C(=O)N[C@H]2CCNC(=O)[C@H]([C@@H](C)O)NC(=O)[C@H](CCN)NC(=O)[C@H](CCN)NC(=O)[C@H](CC(C)C)NC(=O)[C@@H](CC(C)C)NC(=O)[C@H](CCN)NC2=O)[C@@H](C)O)NC1=O)C(C)C [Ex. 14] (I: Ac-[Dab]V[Dap]YCE[dDab][Dab]WC[Tle]-NH2 / II: [Dab]T[Dap][Dab][Dab][dL]L[Dab][Dab]T; disulfide I:5-I:10; amide I:6-II:N; lactam II:4-II:C)	–	0.25 µg/mL (≈ 0.107 µM)	0.5 µg/mL (≈ 0.214 µM)	–	–	0.25 µg/mL (≈ 0.107 µM)	0.5 µg/mL (≈ 0.214 µM)	<1%
CN[C@H](C(=O)N[C@H](C(=O)N[C@@H](Cc1ccc(O)cc1)C(=O)N[C@H]1CSSC[C@@H](C(=O)N[C@H](C(=O)N[C@@H](C)C(=O)N[C@@H](CO)C(N)=O)C(C)C)NC(=O)[C@H](Cc2c[nH]c3ccccc23)NC(=O)[C@H](CCO)NC(=O)[C@@H](CCN)NC(=O)[C@H](CCC(=O)N[C@@H](CCN)C(=O)N[C@H](C(=O)N[C@@H](CCN)C(=O)N[C@H]2CCNC(=O)[C@H]([C@@H](C)O)NC(=O)[C@H](CCN)NC(=O)[C@H](CCN)NC(=O)[C@H](CC(C)C)NC(=O)[C@@H](CC(C)C)NC(=O)[C@H](CCN)NC2=O)[C@@H](C)O)NC1=O)[C@@H](C)O)C(C)C [Ex. 183] (I: H-[NMeV]TYCE[dDab][hSer]WCVAS-NH2 / II: [Dab]T[Dab][Dab][Dab][dL]L[Dab][Dab]T; disulfide I:4-I:9; amide I:5-II:N; lactam II:4-II:C)	–	0.125 µg/mL (≈ 0.0524 µM)	0.25 µg/mL (≈ 0.105 µM)	–	–	0.125 µg/mL (≈ 0.0524 µM)	0.25 µg/mL (≈ 0.105 µM)	<1%

Continued, in another order:

MIC [1]	MIC [2]	MIC [3]	MIC [4]	MIC [5]	MIC [6]	MIC [7]	SMILES	Hemolysis at 200 μg/mL [8]
1 µg/mL (≈ 0.419 µM)	0.25 µg/mL (≈ 0.105 µM)	0.5 µg/mL (≈ 0.209 µM)	8 µg/mL (≈ 3.35 µM)	0.5 µg/mL (≈ 0.209 µM)	0.125 µg/mL (≈ 0.0524 µM)	0.25 µg/mL (≈ 0.105 µM)	CC(C)C[C@@H]1NC(=O)[C@@H](CC(C)C)NC(=O)[C@H](CCN)NC(=O)[C@@H](NC(=O)[C@H](CN)NC(=O)[C@@H](NC(=O)[C@H](CCN)NC(=O)CC[C@@H]2NC(=O)[C@H](CCCN)NC(=O)[C@H](CCN)NC(=O)[C@H](Cc3ccc(O)cc3)NC(=O)[C@@H](NC(=O)[C@@H](O)C(C)C)CSSC[C@@H](C(=O)NC(CO)CO)NC(=O)[C@H](C(C)(C)C)NC(=O)[C@H](CO)NC(=O)[C@H](Cc3c[nH]c4ccccc34)NC(=O)[C@H]([C@@H](C)O)NC2=O)[C@@H](C)O)CCNC(=O)[C@H]([C@@H](C)O)NC(=O)[C@H](CCN)NC(=O)[C@H](CCN)NC1=O [Ex. 162] (I: H-[Hiv]CY[Dab][Orn]ETWS[Tle]C-{NHCH(CH2OH)2} / II: [Dab]T[Dap][Dab][Dab][dL]L[Dab][Dab]T; disulfide I:2-I:11; amide I:6-II:N; lactam II:4-II:C)	<1%
2 µg/mL (≈ 0.843 µM)	0.25 µg/mL (≈ 0.105 µM)	0.125 µg/mL (≈ 0.0527 µM)	8 µg/mL (≈ 3.37 µM)	2 µg/mL (≈ 0.843 µM)	0.25 µg/mL (≈ 0.105 µM)	0.25 µg/mL (≈ 0.105 µM)	CC(C)C[C@@H]1NC(=O)[C@@H](CC(C)C)NC(=O)[C@H](CCN)NC(=O)[C@@H](NC(=O)[C@H](CCN)NC(=O)[C@@H](NC(=O)[C@H](CCN)NC(=O)CC[C@@H]2NC(=O)[C@H](CCN)NC(=O)[C@H](C(C)C)NC(=O)[C@@H](NC(=O)[C@@H](O)C(C)C)CSSC[C@@H](C(=O)NC(CO)CO)NC(=O)[C@H](Cc3ccc(O)cc3)NC(=O)[C@H](CO)NC(=O)[C@H](Cc3c[nH]c4ccccc34)NC(=O)[C@H](CCO)NC(=O)[C@@H](CCN)NC2=O)[C@@H](C)O)CCNC(=O)[C@H]([C@@H](C)O)NC(=O)[C@H](CCN)NC(=O)[C@H](CCN)NC1=O [Ex. 97] (I: H-[Hiv]CV[Dab]E[dDab][hSer]WSYC-{NHCH(CH2OH)2} / II: [Dab]T[Dab][Dab][Dab][dL]L[Dab][Dab]T; disulfide I:2-I:11; amide I:5-II:N; lactam II:4-II:C)	<1%
–	0.25 µg/mL (≈ 0.107 µM)	0.125 µg/mL (≈ 0.0536 µM)	–	–	0.125 µg/mL (≈ 0.0536 µM)	0.125 µg/mL (≈ 0.0536 µM)	CC(=O)N[C@H](C(=O)N[C@H]1CCCNC(=O)[C@@H](CC(N)=O)NC(=O)[C@H](C(C)(C)C)NC(=O)[C@H](CO)NC(=O)[C@H](Cc2c[nH]c3ccccc23)NC(=O)[C@H](CCO)NC(=O)[C@@H](CCN)NC(=O)[C@H](CCC(=O)N[C@@H](CCN)C(=O)N[C@H](C(=O)N[C@@H](CN)C(=O)N[C@H]2CCNC(=O)[C@H]([C@@H](C)O)NC(=O)[C@H](CCN)NC(=O)[C@H](CCN)NC(=O)[C@H](CC(C)C)NC(=O)[C@@H](CC(C)C)NC(=O)[C@H](CCN)NC2=O)[C@@H](C)O)NC(=O)[C@H](CO)NC(=O)[C@H](Cc2ccc(O)cc2)NC1=O)C(C)C [Ex. 19] (I: Ac-V[Orn]YSE[dDab][hSer]WS[Tle][dN] / II: [Dab]T[Dap][Dab][Dab][dL]L[Dab][Dab]T; lactam I:2-I:C, II:4-II:C; amide I:5-II:N)	<1%
–	0.5 µg/mL (≈ 0.208 µM)	1 µg/mL (≈ 0.415 µM)	–	–	0.5 µg/mL (≈ 0.208 µM)	1 µg/mL (≈ 0.415 µM)	CC(C)C[C@@H]1NC(=O)[C@@H](CC(C)C)NC(=O)[C@H](CCN)NC(=O)[C@@H](NC(=O)[C@H](CCN)NC(=O)[C@@H](NC(=O)[C@H](CCN)NC(=O)CC[C@@H]2NC(=O)[C@H](CCN)NC(=O)[C@H](Cc3ccc(O)cc3)NC(=O)[C@@H](NC(=O)[C@@H](N)C(C)C)CCC(=O)NCC[C@@H](C(=O)N[C@@H](CO)C(=O)O)NC(=O)[C@H](C(C)(C)C)NC(=O)[C@H](CO)NC(=O)[C@H](Cc3c[nH]c4ccccc34)NC(=O)[C@H]([C@@H](C)O)NC(=O)[C@@H](CCN)NC2=O)[C@@H](C)O)CCNC(=O)[C@H]([C@@H](C)O)NC(=O)[C@H](CCN)NC(=O)[C@H](CCN)NC1=O [Ex. 56] (I: H-VEY[Dab]E[dDab]TWS[Tle][Dab]S-OH / II: [Dab]T[Dab][Dab][Dab][dL]L[Dab][Dab]T; lactam I:2-I:11, II:4-II:C; amide I:5-II:N)	<1%
